Data reported in PMC8514817, “De Novo Design of Antimicrobial Peptides With a Special Charge Pattern and Their Application in Combating Plant Pathogens” (Frontiers in Plant Science, 2021).
≈ marks a conversion by molar mass, not a printed value. Like-named read-outs stand apart in the source and are kept apart here. Where a SMILES comes first, the peptide text is derived from it. The star is where a group is joined. Myristoyl = CCCCCCCCCCCCCC(=O)*

Legend:
Pst DC3000 = details: Table 4, rich medium, up to 32 μg/ml; for MIC: 48 h, no visible growth; for MBC: spotted on rich agar 48 h, no colony
Cgl FST02 = details: for MIC: spores, 96 h; for antimicrobial activity: at the highest peptide concentration (32μg/ml) tested, data not shown, before the tests in minimal media
Rs Pss190 = details: Table 5, minimal medium, crude peptides, up to 32 μg/ml; for MIC: 96 h; for MBC/MFC: spotted on rich agar 48 h
[1] = tested on: Pectobacterium carotovorum subsp. carotovorum (Pcc); assay: Plant disease response, Pcc infection of tomato L390 leaves; format: in vivo, Solanum lycopersicum; details: for size of disease lesions caused by Pcc, tomato: crude peptide 16 μg/ml mixed with Pcc, detached wounded tomato L390 leaves, 16–28 h post-inoculation, vs water
Eco DH5α = details: 48 h
Bc = details: for MIC: spores, 96 h; for antimicrobial activity: at the highest peptide concentration (32μg/ml) tested, data not shown, before the tests in minimal media
Xoo Xoo28 = details: Table 4, rich medium, up to 32 μg/ml; for MIC: 48 h, no visible growth; for MBC: spotted on rich agar 48 h, no colony
Rs Pss4 = details: Table 5, minimal medium, crude peptides, up to 32 μg/ml; for MIC: 96 h; for MBC/MFC: spotted on rich agar 48 h
[2] = tested on: Pectobacterium carotovorum subsp. carotovorum (Pcc); assay: Plant disease response, Pcc infection of Arabidopsis Col0 leaves; format: in vivo, Arabidopsis thaliana; details: crude peptide 16 μg/ml mixed with Pcc, wounded leaves of Arabidopsis Col0, 16–28 h post-inoculation, vs water
Xev Xvt28 = details: 48 h
Botrytis cinerea (Bc) [3] = assay: Plant disease response, Bc infection of Arabidopsis Col0 leaves; format: in vivo, Arabidopsis thaliana; details: for development of the lesion caused by Bc, Arabidopsis: crude peptide 16 μg/ml mixed with Bc spores (10^5 spores/ml), Arabidopsis Col0 leaves, 47–70 h post-inoculation, vs water
Eco = format: cell-based, Escherichia coli
Pss B728a = details: Table 4, rich medium, up to 32 μg/ml; for MIC: 48 h, no visible growth; for MBC: spotted on rich agar 48 h, no colony
Rs = format: cell-based, Ralstonia solanacearum; details: crude peptide, 5 μl of 64 μg/ml in 20 μl, bacteria OD600=0.4 in water, 2 h, confocal microscopy
Botrytis cinerea (Bc) [4] = assay: Plant disease response, Bc infection of tomato L390 leaves; format: in vivo, Solanum lycopersicum; details: crude peptide 16 μg/ml mixed with Bc spores (10^4 spores/ml), 47–70 h post-inoculation, vs water
Pcc = details: up to 32 μg/ml
[5] = tested on: Ralstonia solanacearum (Rs); format: cell-based; details: at the highest peptide concentration (32μg/ml) tested; data not shown; before the tests in minimal media
Ech = details: up to 32 μg/ml
[6] = Table 5, minimal (CD) medium, crude peptides, up to 32 μg/ml
[7] = Table 5, minimal (CD) medium, crude peptides, spotted on PD plate 24~72 h, up to 32 μg/ml
[8] = Table 4, rich medium, 48 h, no visible growth
[9] = Table 5, minimal medium, crude peptides, 96 h
[10] = Table 5, minimal medium, crude peptides, spotted on rich agar 48 h
[11] = Table 6, minimal media, up to 32 μg/ml
[12] = Table 6, minimal media, spotted on PD plate 24~72 h, up to 32 μg/ml
[13] = Table 7, rich media, spotted on rich agar 48 h

Compound | MIC (Pst DC3000) | MBC (Pst DC3000) | MIC (Cgl FST02; [6]) | MBC/MFC (Cgl FST02; [7]) | MIC (Rs Pss190) | MBC/MFC (Rs Pss190) | size of disease lesions caused by Pcc, tomato [1] | MIC (Bc; [6]) | MBC/MFC (Bc; [7]) | MIC (Rs Pss4) | MBC/MFC (Rs Pss4) | size of disease lesions caused by Pcc, Arabidopsis [2] | development of the lesion caused by Bc, Arabidopsis (Botrytis cinerea (Bc) [3]) | membranolytic effect (SYTOX Green staining) (Eco) | membranolytic effect (SYTOX Green staining) (Rs) | development of the lesion caused by Bc, tomato (Botrytis cinerea (Bc) [4]) | MIC (Pcc; [9]) | MBC/MFC (Pcc; [10]) | MIC (Ech; [9]) | MBC/MFC (Ech; [10]) | also measured
Ac-WKKLKKLLKKL-NH2 [pepD3] | 8 µg/mL | 16 µg/mL | – (“–” indicates that no antimicrobial activity was detected in minimal media at the highest concentration (32μg/ml) of crude peptides that was tested in this study.) | – (“–” indicates that no antimicrobial activity was detected in minimal media at the highest concentration (32μg/ml) of crude peptides that was tested in this study.) | – (“–” indicates that no antimicrobial activity was detected in minimal media at the highest concentration (32μg/ml) of crude peptides that was tested in this study.) | – (“–” indicates that no antimicrobial activity was detected in minimal media at the highest concentration (32μg/ml) of crude peptides that was tested in this study.) | did not detectably inhibit the diseases | – (“–” indicates that no antimicrobial activity was detected in minimal media at the highest concentration (32μg/ml) of crude peptides that was tested in this study.) | – (“–” indicates that no antimicrobial activity was detected in minimal media at the highest concentration (32μg/ml) of crude peptides that was tested in this study.) | – (“–” indicates that no antimicrobial activity was detected in minimal media at the highest concentration (32μg/ml) of crude peptides that was tested in this study.) | – (“–” indicates that no antimicrobial activity was detected in minimal media at the highest concentration (32μg/ml) of crude peptides that was tested in this study.) | did not detectably inhibit the diseases | did not detectably inhibit the diseases | significant membranolytic effect | significant membranolytic effect | did not detectably inhibit the diseases | 8 µg/mL | 16 µg/mL | 32 µg/mL |  | antimicrobial activity (Cgl FST02): did not have detectable antimicrobial activity; MBC (Eco DH5α): 16 µg/mL; MIC (Eco DH5α): 8 µg/mL; antimicrobial activity (Bc): did not have detectable antimicrobial activity; MIC (Xoo Xoo28): 4 µg/mL; MBC (Xoo Xoo28): 4 µg/mL; MBC (Xev Xvt28): 4 µg/mL; MIC (Xev Xvt28): 4 µg/mL; MIC (Pss B728a): 8 µg/mL; MBC (Pss B728a): 16 µg/mL; MIC (Pcc; [8]): 8 µg/mL; antimicrobial activity [5]: did not have detectable antimicrobial activity
CCCCCCCCCCCCCC(=O)N[C@@H](Cc1c[nH]c2ccccc12)C(=O)N[C@@H](CCCCN)C(=O)N[C@@H](CCCCN)C(=O)N[C@@H](CC(C)C)C(=O)N[C@@H](CCCCN)C(=O)N[C@@H](CCCCN)C(=O)N[C@@H](CC(C)C)C(=O)N[C@@H](CC(C)C)C(=O)N[C@@H](CCCCN)C(=O)N[C@@H](CCCCN)C(=O)N[C@@H](CC(C)C)C(N)=O [pepD3M] (Myristoyl-WKKLKKLLKKL-NH2) |  |  | 8 µg/mL (≈ 4.89 µM) | 8 µg/mL (≈ 4.89 µM) | 16 µg/mL (≈ 9.78 µM) | 16 µg/mL (≈ 9.78 µM) | significantly reduced the sizes of the disease lesions | 4 µg/mL (≈ 2.45 µM) | 8 µg/mL (≈ 4.89 µM) | 8 µg/mL (≈ 4.89 µM) | 16 µg/mL (≈ 9.78 µM) | significantly reduced the sizes of the disease lesions | decreased the development of the lesion |  |  | decreased the development of the lesion | 4 µg/mL (≈ 2.45 µM) | 4 µg/mL (≈ 2.45 µM) | 4 µg/mL (≈ 2.45 µM) | 8 µg/mL (≈ 4.89 µM) | 
CCCCCCCCCCCCCC(=O)N[C@@H](Cc1c[nH]c2ccccc12)C(=O)N[C@@H](CCCCN)C(=O)N[C@@H](CCCCN)C(=O)N[C@@H](CC(C)C)C(=O)N[C@@H](CCCCN)C(=O)N[C@@H](CCCCN)C(=O)N[C@@H](CC(C)C)C(=O)N[C@@H](CC(C)C)C(=O)N[C@@H](CCCCN)C(=O)N[C@@H](CCCCN)C(=O)N[C@@H](CC(C)C)C(=O)N[C@@H](CCCCN)C(=O)N[C@@H](CCCCN)C(=O)N[C@@H](CC(C)C)C(N)=O [pepD2M] (Myristoyl-WKKLKKLLKKLKKL-NH2) |  |  | 8 µg/mL (≈ 3.99 µM) | 16 µg/mL (≈ 7.98 µM) | 8 µg/mL (≈ 3.99 µM) | 8 µg/mL (≈ 3.99 µM) | significantly reduced the sizes of the disease lesions | 16 µg/mL (≈ 7.98 µM) | 16 µg/mL (≈ 7.98 µM) | 8 µg/mL (≈ 3.99 µM) | 8 µg/mL (≈ 3.99 µM) | significantly reduced the sizes of the disease lesions | decreased the development of the lesion | significant membranolytic effect | significant membranolytic effect | decreased the development of the lesion | 4 µg/mL (≈ 2 µM) | 4 µg/mL (≈ 2 µM) | 4 µg/mL (≈ 2 µM) | 8 µg/mL (≈ 3.99 µM) | MIC (Cgl FST02; [11]): 16 µg/mL (≈ 7.98 µM); MFC (Cgl FST02; [12]): 16 µg/mL (≈ 7.98 µM); MIC (Bc; [11]): 16 µg/mL (≈ 7.98 µM); MFC (Bc; [12]): 32 µg/mL (≈ 16 µM)
Ac-WKKLKKLLKKLKKL-NH2 [pepD2] | 4 µg/mL | 8 µg/mL | – (“–” indicates that no antimicrobial activity was detected in minimal media at the highest concentration (32μg/ml) of crude peptides that was tested in this study.) | – (“–” indicates that no antimicrobial activity was detected in minimal media at the highest concentration (32μg/ml) of crude peptides that was tested in this study.) | – (“–” indicates that no antimicrobial activity was detected in minimal media at the highest concentration (32μg/ml) of crude peptides that was tested in this study.) | – (“–” indicates that no antimicrobial activity was detected in minimal media at the highest concentration (32μg/ml) of crude peptides that was tested in this study.) | did not detectably inhibit the diseases | – (“–” indicates that no antimicrobial activity was detected in minimal media at the highest concentration (32μg/ml) of crude peptides that was tested in this study.) | – (“–” indicates that no antimicrobial activity was detected in minimal media at the highest concentration (32μg/ml) of crude peptides that was tested in this study.) | – (“–” indicates that no antimicrobial activity was detected in minimal media at the highest concentration (32μg/ml) of crude peptides that was tested in this study.) | – (“–” indicates that no antimicrobial activity was detected in minimal media at the highest concentration (32μg/ml) of crude peptides that was tested in this study.) | did not detectably inhibit the diseases | did not detectably inhibit the diseases | significant membranolytic effect | significant membranolytic effect | did not detectably inhibit the diseases | 8 µg/mL | 8 µg/mL | 16 µg/mL | 16 µg/mL | antimicrobial activity (Cgl FST02): did not have detectable antimicrobial activity; Plant response to infection with Pcc, Tomato (class and significance; number of batches in parentheses) ([1]; crude peptide 16 µg/mL, lesion diameter 16–28 h post-inoculation, Student's t-test vs water-treated): ns(3); MBC (Eco DH5α): 8 µg/mL; antimicrobial activity (Bc): did not have detectable antimicrobial activity; MIC (Xoo Xoo28): 4 µg/mL; MBC (Xoo Xoo28): 8 µg/mL; MBC (Xev Xvt28): 4 µg/mL; MIC (Xev Xvt28): 4 µg/mL; Plant response to infection with Bc, Arabidopsis (class and significance; number of batches in parentheses) (Botrytis cinerea (Bc) [3]; crude peptide 16 µg/mL, lesion diameter 47–70 h post-inoculation, Student's t-test vs water-treated): ns(2 ); MIC (Pss B728a): 8 µg/mL; MBC (Pss B728a): 16 µg/mL; MIC (Pcc; [8]): 8 µg/mL; MIC (Pcc; Table 7, rich media, 48 h): 4 µg/mL; MBC (Pcc; [13]): 8 µg/mL; antimicrobial activity [5]: did not have detectable antimicrobial activity; MIC (Ech; Table 7, rich media, 48 h): 32 µg/mL; MBC (Ech; [13]): 32 µg/mL
